The results in this text go back to patent publication US20120129843A1, “PYRIDYL-THIAZOLYL INHIBITORS OF PRO-MATRIX METALLOPROTEINASE ACTIVATION” (priority 2010, published 2012).

The target of assay [1] is T1, proMMP9(20-445;ΔFnII) (SEQ ID NO:6) (Homo sapiens, UniProt P14780, DEL216-390).
T1 construct: start methionine (N); made in house; host or cells: E. coli BL21(DE3) RIL
T1 sequence (P14780 with tags, fused parts or gaps DEL216-390): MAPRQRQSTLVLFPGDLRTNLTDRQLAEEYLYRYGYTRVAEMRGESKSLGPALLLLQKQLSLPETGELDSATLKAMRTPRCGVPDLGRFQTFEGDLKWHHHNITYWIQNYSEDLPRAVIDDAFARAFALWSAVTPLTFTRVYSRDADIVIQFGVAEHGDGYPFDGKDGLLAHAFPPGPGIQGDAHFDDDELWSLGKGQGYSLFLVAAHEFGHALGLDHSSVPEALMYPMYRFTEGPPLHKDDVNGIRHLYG
The assay is described as follows: ThermoFluor binding assay with proMMP9(20-445;ΔFnII). The essentials:
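Thermal-shift binding using 2.8 μM proMMP9(20-445;ΔFnII) with 50 μM 1,8-ANS in 50 mM HEPES pH 7.0, 100 mM NaCl, 0.001% Tween-20, 2.5 mM MgCl2, 300 μM CaCl2. Compound serially diluted; heated 40–90 °C at 1 °C/min, fluorescence 500 nm. Tm shifts fitted using DSC/ThermoFluor-derived thermodynamic parameters.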

Assay [2] deals with T2, proMMP9(67-444;ΔFnII) (SEQ ID NO:5) (Homo sapiens, UniProt P14780, DEL216-390).
T2 construct: start methionine (N); made in house; host or cells: E. coli BL21(DE3) RIL
T2 sequence (P14780 with tags, fused parts or gaps DEL216-390): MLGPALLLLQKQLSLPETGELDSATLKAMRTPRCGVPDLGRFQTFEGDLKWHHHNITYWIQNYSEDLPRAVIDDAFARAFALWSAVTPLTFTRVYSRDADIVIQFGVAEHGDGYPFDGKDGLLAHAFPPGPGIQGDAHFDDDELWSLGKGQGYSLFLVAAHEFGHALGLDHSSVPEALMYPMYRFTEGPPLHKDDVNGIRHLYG
The assay is described as follows: ThermoFluor binding assay with proMMP9(67-444;ΔFnII). In short, it runs like this:
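Thermal shift with 3.5 μM desalted proMMP9(67-444;ΔFnII) and 50 μM 1,8-ANS in 50 mM HEPES pH 7.0, 100 mM NaCl, 0.001% Tween-20, 2.5 mM MgCl2, 300 μM CaCl2; compounds serially diluted. Heated 40–90 °C at 1 °C/min, fluorescence at 500 nm; Tm fit, binding modelled using DSC-derived thermodynamic parameters.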
(Differential scanning fluorimetry follows unfolding on heating by fluorescence.)

Assay [3] addresses T3, proMMP13(1-268) (SEQ ID NO:7) (Homo sapiens, UniProt P45452).
T3 construct: 6xHis (C); made in house; host or cells: HEK293 (transient, secreted)
Briefly: ThermoFluor binding assay with proMMP13(1-268). The method, then:
The ThermoFluor® (TF) assay is a 384-well plate-based binding assay that measures thermal stability of proteins (Biomol Screen 2001, 6, 429-40; Biochemistry 2005, 44, 5258-66). The experiments were carried out using instruments available from Johnson & Johnson Pharmaceutical Research & Development, LLC. TF dye used in all experiments was […] (1,8-ANS) (Invitrogen: A-47).
Compounds were arranged in a pre-dispensed plate (Greiner Bio-one: 781280), wherein compounds were serially diluted in 100% DMSO across 11 columns within a series. Columns 12 and 24 were used as DMSO reference and contained no compound. For multiple compound concentration-response experiments, the compound aliquots ([…]) were robotically predispensed directly into black 384-well polypropylene PCR microplates (Abgene: TF-0384/k) using a Cartesian Hummingbird liquid handler (DigiLab, Holliston, Mass.). Following compound dispense, protein and dye solutions were added to achieve the final assay volume of 3 μL. The assay solutions were overlayed with 1 μL of silicone oil (Fluka, type DC 200: 85411) to prevent evaporation.
Assay plates were robotically loaded onto a thermostatically controlled PCR-type thermal block and then heated from 40 to 90° C. at a ramp-rate of 1° C./min for all experiments. Fluorescence was measured by continuous illumination with UV light (Hamamatsu LC6) supplied via fiber optics and filtered through a band-pass filter (380-400 nm; >60D cutoff). Fluorescence emission of the entire 384-well plate was detected by measuring light intensity using a CCD camera (Sensys, Roper Scientific) filtered to detect 500±25 nm, resulting in simultaneous and independent readings of all 384 wells. A single image with 20-sec exposure time was collected at each temperature, and the sum of the pixel intensity in a given area of the assay plate was recorded vs temperature and fit to standard equations to yield the Tm (J Biomol Screen 2001, 6, 429-40).
Thermodynamic parameters necessary for fitting compound binding for each proMMP were estimated by differential scanning calorimetry (DSC) and from ThermoFluor® data. The heat capacity of unfolding for each protein was estimated from the molecular weight and from ThermoFluor® dosing data.
ThermoFluor® with proMMP13(1-268) (SEQ ID NO: 7)
The proMMP13(1-268) (SEQ ID NO:7) protein sample preparations included a desalting buffer exchange step via a PD-10 gravity column (GE Healthcare). The desalting buffer exchange was performed prior to diluting the protein to the final assay concentration of 3.5 μM. The concentration of proMMP13(1-268) (SEQ ID NO:7) was estimated spectrophotometrically based on a calculated extinction coefficient of ε280=37000 M^−1cm^−1, a calculated molecular weight of 30.8 kDa, and calculated pI of 5.33. ThermoFluor® reference conditions were defined as follows: 100 μg/mL proMMP13(1-268) (SEQ ID NO:7), 25 μM 1,8-ANS, pH 7.0 Buffer (50 mM HEPES pH 7.0, 100 mM NaCl, 0.001% Tween-20, 2.5 mM MgCl2, 300 μM CaCl2). The thermodynamic parameters for proMMP13(1-268) (SEQ ID NO:7) are as follows: Tm (° C.)=67 (+/−0.1), ΔUH(Tm) (cal mol^−1)=107000(+/−5000), ΔUS(Tm) (cal mol^−1 K^−1)=318, ΔUCp (cal mol^−1 K^−1)=2600.

Assay [4] deals with T4, full-length proMMP9(1-707) (SEQ ID NO:1), activation by catalytic MMP3 (Homo sapiens, UniProt P14780, R574P).
T4 construct: made in house; host or cells: HEK293 (proMMP9, secreted); E. coli (MMP3)
T4 sequence (P14780 20-707 R574P): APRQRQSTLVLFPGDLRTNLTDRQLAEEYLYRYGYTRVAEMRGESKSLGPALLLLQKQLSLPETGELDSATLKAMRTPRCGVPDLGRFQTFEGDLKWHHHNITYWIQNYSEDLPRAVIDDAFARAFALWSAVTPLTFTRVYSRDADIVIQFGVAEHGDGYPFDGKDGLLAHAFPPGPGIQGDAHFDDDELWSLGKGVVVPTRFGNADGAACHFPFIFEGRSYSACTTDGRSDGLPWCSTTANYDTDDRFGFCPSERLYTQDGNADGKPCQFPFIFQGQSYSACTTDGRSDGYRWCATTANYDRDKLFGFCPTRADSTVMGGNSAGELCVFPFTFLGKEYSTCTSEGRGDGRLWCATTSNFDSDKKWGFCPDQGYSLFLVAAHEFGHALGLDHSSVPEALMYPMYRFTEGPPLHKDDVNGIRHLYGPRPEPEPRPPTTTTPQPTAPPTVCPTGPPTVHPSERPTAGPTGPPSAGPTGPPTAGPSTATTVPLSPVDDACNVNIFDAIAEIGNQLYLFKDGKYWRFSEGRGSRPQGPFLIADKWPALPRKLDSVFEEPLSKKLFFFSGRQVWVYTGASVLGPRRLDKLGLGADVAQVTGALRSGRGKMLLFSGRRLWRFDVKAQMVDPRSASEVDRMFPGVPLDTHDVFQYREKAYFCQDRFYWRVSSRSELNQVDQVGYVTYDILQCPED
The assay is described as follows: proMMP9/MMP3 P126 Activation Assay. The class given is biochemical. The method, then:
proMMP9/MMP3 P126 Activation Assay
The reaction volume was 50 μL. […] Reactivity of residual MMP3 towards P-126 substrate was minimal under these conditions.

The target in assay [5] is T5, proMMP13(1-268) (SEQ ID NO:7), activation by plasmin (Homo sapiens, UniProt P45452).
T5 construct: 6xHis (C); made in house; host or cells: HEK293 (proMMP13, secreted)
The assay is described as follows: ProMMP13/Plasmin P126 Activation Assay. Type of assay: biochemical. Here is the method: ProMMP13/Plasmin P126 Activation Assay
On the day of assay, proMMP13(1-268) (SEQ ID NO:7) purified from HEK293 cells and plasmin were diluted to 160 nM and 320 nM, respectively, in assay buffer. The reaction volume was 50 μL. […] The plate was sealed and incubated for 40 min at 37° C. […] Plasmin was not reactive towards P-126 substrate under these conditions.

Assay [6] concerns the target T6, full-length proMMP9(1-707) (SEQ ID NO:1) from COS-1 cells, activation by catalytic MMP3 (Homo sapiens, UniProt P14780, R574P).
T6 construct: made in house; host or cells: COS-1 (proMMP9, secreted); E. coli (MMP3)
The assay is described as follows: ProMMP9/MMP3 DQ Gelatin Activation Assay. The conditions noted are these: read-out: ProMMP9/MMP3 DQ gel Activation Assay, IC50. Type of assay: biochemical. From the text: ProMMP9/MMP3 DQ Gelatin Activation Assay

Where a name gives a salt, the structure may show the parent alone. Where only a bound is given, the exact number is not on record here.

Usually Kd stands for the equilibrium constant for the complex coming apart.

T6 sequence (P14780 20-707 R574P): as above

With `CC(C)Oc1ccc(C(=O)O)cc1Nc1nc(-c2cccnc2)cs1` [Example 17, 4-Isopropoxy-3-(4-pyridin-3-yl-thiazol-2-ylamino)-benzoic acid.TFA], the Kd in assay [1] is 3.6 µM; in assay [2], 5.7 µM; in assay [3], 1.5 µM. For the same compound, the IC50 in assay [4] is 4.3 µM.

Regarding `CCOc1ccc(-c2ncco2)cc1Nc1nc(-c2cccnc2)cs1` [Example 18, (2-Ethoxy-5-oxazol-2-yl-phenyl)-(4-pyridin-3-yl-thiazol-2-yl)-amine.HBr], the Kd in assay [1] was 26 µM; in assay [2] it was 0.66 µM; in assay [3], 3.3 µM. Also, the IC50 in assay [4] came out at 0.67 µM.

On to `Cc1cc(C)c(-c2csc(Nc3cc(C(N)=O)ccc3OC(C)C)n2)c(C)n1` [Example 19, 4-Isopropoxy-3-[4-(2,4,6-trimethyl-pyridin-3-yl)-thiazol-2-ylamino]-benzamide.TFA], for which the figures for the Kd in assay [1], in assay [2] and in assay [3] were 27 µM, 14 µM and 6.2 µM, respectively. Also, the IC50 in assay [4] was ~4 µM.

Turning to `CC(C)Oc1ccc(C(N)=O)cc1Nc1nc(-c2ccc(Br)nc2)cs1` [Example 20, 4-Isopropoxy-3-[4-(6-bromo-pyridin-3-yl)-thiazol-2-ylamino]-benzamide.TFA], the values for the Kd in assay [1], in assay [2] and in assay [3] were 0.34 µM, 3.3 µM and 0.23 µM, respectively. Moreover, the IC50 in assay [4] turned out to be 0.64 µM.

Regarding `CC(C)Oc1ccc(C(N)=O)cc1Nc1nc(-c2ccnc(Cl)c2)cs1` [Example 21, 3-[4-(2-Chloro-pyridin-4-yl)-thiazol-2-ylamino]-4-isopropoxy-benzamide.TFA], the Kd stood at 0.21 µM in assay [1], 4.1 µM in assay [2] and 1.4 µM in assay [3]. Moreover, the IC50 in assay [4] turned out to be 0.6 µM.

For `CC(C)Oc1ccc(C(N)=O)cc1Nc1nc(-c2cncc(Br)c2)cs1` [Example 22, 3-[4-(5-Bromo-pyridin-3-yl)-thiazol-2-ylamino]-4-isopropoxy-benzamide.TFA], the Kd in assay [1] is 1.3 µM; in assay [2] it was 5.7 µM; in assay [3], 2.9 µM. For the same compound, the IC50 in assay [4] was found to be 4.6 µM.

For `CC(C)Oc1ccc(C(N)=O)cc1Nc1nc(-c2cnccc2C(C)C)cs1` [Example 23, 4-Isopropoxy-3-[4-(4-isopropyl-pyridin-3-yl)-thiazol-2-ylamino]-benzamide.TFA], the Kd in assay [1] was 11 µM; in assay [2], 18 µM; in assay [3], 12 µM. Besides, the IC50 in assay [4] is ~14 µM.

For `Cc1nc(C(F)(F)F)ccc1-c1csc(Nc2cc(C(N)=O)ccc2OC(C)C)n1` [Example 24, 4-Isopropoxy-3-[4-(2-methyl-6-trifluoromethyl-pyridin-3-yl)-thiazol-2-ylamino]-benzamide.TFA], the Kd in assay [1] is 2.2 µM; in assay [2], > 95 µM; in assay [3], 3.7 µM. Moreover, the IC50 in assay [4] was ~3 µM.

As for `COc1ccc(-c2csc(Nc3cc(C(N)=O)ccc3OC(C)C)n2)cn1` [Example 25, 4-Isopropoxy-3-[4-(6-methoxy-pyridin-3-yl)-thiazol-2-ylamino]-benzamide.TFA], the Kd in assay [1] is 0.17 µM; in assay [2], 2 µM; in assay [3] it was 1.8 µM. The IC50 in assay [4] is 0.46 µM.

Consider `CC(C)Oc1ccc(C(N)=O)cc1Nc1nc(-c2ccc(Cl)nc2)cs1` [Example 26, 3-[4-(6-Chloro-pyridin-3-yl)-thiazol-2-ylamino]-4-isopropoxy-benzamide.TFA], for which the results for the Kd in assay [1], in assay [2] and in assay [3] were 0.32 µM, 3.3 µM and 0.25 µM, respectively. The IC50 in assay [4] was 0.68 µM.

With `CC(C)Oc1ccc(C(N)=O)cc1Nc1nc(-c2ccc(N3CCN(C)CC3)nc2)cs1` [Example 27, 4-Isopropoxy-3-{4-[6-(4-methyl-piperazin-1-yl)-pyridin-3-yl]-thiazol-2-ylamino}-benzamide.TFA], the values for the Kd in assay [1], in assay [2] and in assay [3] were 0.039 µM, 0.38 µM and 0.28 µM, respectively. The IC50 in assay [4] is 0.15 µM; in assay [5], 0.9 µM.

Regarding `COc1ccc([N+](=O)[O-])cc1Nc1nc(-c2cccnc2)cs1` [Example 60, (2-Methoxy-5-nitro-phenyl)-(4-pyridin-3-yl-thiazol-2-yl)-amine], the results for the Kd in assay [1], in assay [2] and in assay [3] were > 95 µM, > 95 µM and 78 µM, respectively. The IC50 in assay [6] was determined as 5.5 µM.
